Converted amounts (≈) assume the structure as drawn.
How the values were obtained:
M. Smegmatis (ATCC607) = test: In-vitro anti-bacterial activity against strain M. smegmatis ATCC607; format: cell-based; details: 90% inhibitory concentration for bacterial growth, Alamar Blue fluorescence; for IC90 values MSM 1 ATCC607: 48 hours; for IC90: Mycolicibacterium smegmatis, ATCC607, 48 h, read-out: IC90 values MSM 1 ATCC607
Experimental: D.2. In-Vitro Method for Testing Compounds for Anti-Bacterial Activity Against Strain M. smegmatis ATCC607. Flat-bottom, sterile 96-well plastic microtiter plates were filled with 180 μl of sterile deionized water, supplemented with 0.25% BSA. Subsequently, stock solutions (7.8× final test concentration) of compounds were added in 45 μl volumes to a series of duplicate wells in column 2 so as to allow evaluation of their effects on bacterial growth. Serial five-fold dilutions (45 μl in 180 μl) were made directly in the microtiter plates from column 2 to 11 using a customised robot system (Zymark Corp., Hopkinton, Mass.). Pipette tips were changed after every 3 dilutions to minimize pipetting errors with high hydrophobic compounds. Untreated control samples with (column 1) and without (column 12) inoculum were included in each microtiter plate. Approximately 250 CFU per well of bacteria inoculum, in a volume of 100 μl in 2.8× Mueller-Hinton broth medium, was added to the rows […]. The same volume of broth medium without inoculum was added to column 12 in row A to H. The cultures were incubated at 37° C. for 48 hours in a humidified 5% CO2 atmosphere (incubator with open air valve and continuous ventilation). At the end of incubation, two days after inoculation, the bacterial growth was quantitated fluorometrically. Therefore Alamar Blue (10×) was added to all wells in a volume of 20 μl and plates were incubated for another 2 hours at […] The fluorescence was read in a computer-controlled fluorometer (Cytofluor, Biosearch) at an excitation wavelength of 530 nm and an emission wavelength of 590 nm (gain 30).

[1] = test system: Staphylococcus aureus (ATCC29213); test: In-vitro anti-bacterial microtitre plate assay, IC90, S. aureus; format: cell-based; details: 90% inhibitory concentration for bacterial growth, resazurin fluorescence; for IC90 values STA 1 B29213: 24 hours; for IC90: Staphylococcus aureus, ATCC29213, 24 h, read-out: IC90 values STA 1 B29213
Experimental: (§1) D.3. In-Vitro Method for Testing Compounds for Anti-Bacterial Activity Against Various Non-Mycobacterial Strains The bacteria used in this study were grown overnight in flasks containing 100 ml Mueller-Hinton Broth (Becton Dickinson-cat. no. 275730) in sterile de-ionized water, with shaking, at 37° C. Stocks (0.5 ml/tube) were stored at -70° C. until use. Bacteria titrations were performed in microtiter plates to detect the TCID50, in which the TCID50 represents the dilution that gives rise to bacterial growth in 50% of inoculated cultures. In general, an inoculum level of approximately 100 TCID50 was used for susceptibility testing. Flat-bottom, sterile 96-well plastic microtiter plates were filled with 180 μl of sterile deionized water, supplemented with 0.25% BSA. Subsequently, stock solutions (7.8× final test concentration) of compounds were added in 45 μl volumes in column 2. Serial five-fold dilutions (45 μl in 180 μl) were made directly in the microtiter plates from column 2 to reach column 11. Untreated control samples with (column 1) and without (column 12) inoculum were included in each microtiter plate. Depending on the bacteria type, approximately 10 to 60 CFU per well of bacteria inoculum (100 TCID50), in a volume of 100 μl in 2.8× Mueller-Hinton broth medium, was added to the rows […]. The same volume of broth medium without inoculum was added to column 12 in row A to H. The cultures were incubated at 37° C. for 24 hours under a normal atmosphere (incubator with open air valve and continuous ventilation). At the end of incubation, one day after inoculation, the bacterial growth was quantitated fluorometrically. Therefore resazurin (0.6 mg/ml) was added in a volume of 20 μl to all wells 3 hours after inoculation, and the plates were re-incubated overnight. A change in colour from blue to pink indicated the growth of bacteria. The fluorescence was read in a computer-controlled fluorometer (Cytofluor Biosearch) at an excitation wavelength of 530 nm and an emission wavelength of 590 nm. The % growth inhibition achieved by the compounds was calculated according to standard methods.

[2] = test system: Streptococcus pneumoniae (ATCC6305); test: In-vitro anti-bacterial microtitre plate assay, IC90, S. pneumoniae; format: cell-based; details: 90% inhibitory concentration for bacterial growth, resazurin fluorescence; for IC90 values SPN 1 6305: 24 hours; for IC90: Streptococcus pneumoniae, ATCC6305, 24 h, read-out: IC90 values SPN 1 6305
Experimental: as §1

[3] = test system: Streptococcus pyogens (ATCC8668); test: In-vitro anti-bacterial microtitre plate assay, IC90, S. pyogens; format: cell-based; details: 90% inhibitory concentration for bacterial growth, resazurin fluorescence; for IC90 values SPY 8668: 24 hours; for IC90: Streptococcus, ATCC8668, 24 h, read-out: IC90 values SPY 8668
Experimental: as §1

[4] = test system: Enterococcus faecalis (ATCC29212); test: In-vitro anti-bacterial microtitre plate assay, IC90, E. faecalis; format: cell-based; details: 90% inhibitory concentration for bacterial growth, resazurin fluorescence; for IC90 values EFA 29212: 24 hours; for IC90: Enterococcus faecalis, ATCC29212, 24 h, read-out: IC90 values EFA 29212
Experimental: as §1

[5] = test system: Escherichia coli (ATCC35218); test: In-vitro anti-bacterial microtitre plate assay, IC90, E. coli; format: cell-based; details: 90% inhibitory concentration for bacterial growth, resazurin fluorescence; for IC90 values ECO 35218: 24 hours; for IC90: Escherichia coli, ATCC35218, 24 h, read-out: IC90 values ECO 35218
Experimental: as §1

[6] = test system: Pseudomonas aeruginosa (ATCC27853); test: In-vitro anti-bacterial microtitre plate assay, IC90, P. aeruginosa; format: cell-based; details: 90% inhibitory concentration for bacterial growth, resazurin fluorescence; for IC90: Pseudomonas aeruginosa, ATCC27853, 24 h, read-out: IC90 values PAE 27853; for IC90 values PAE 27853: 24 hours
Experimental: as §1

[7] = test system: Mycobacterium tuberculosis (strain H37RV); test: In-vitro method for testing compounds against M. tuberculosis; format: cell-based; details: 90% inhibitory concentration for bacterial growth, 7 days, Middlebrook broth, resazurin fluorescence; for IC90: Mycobacterium tuberculosis, H37RV, 168 h, read-out: IC90 values MTB 1 H37RV

Row | SMILES | melting point [°C] | IC90 values MSM 1 ATCC607 (M. Smegmatis (ATCC607)) [µg/mL] | IC90 values STA 1 B29213 [1] [µg/mL] | IC90 values SPN 1 6305 [2] [µg/mL] | IC90 values SPY 8668 [3] [µg/mL] | IC90 values EFA 29212 [4] [µg/mL] | IC90 values ECO 35218 [5] [µg/mL] | IC90 [6] [µg/mL] | IC90 [7] [µg/mL] | IC90 [3] [µg/mL] | IC90 [4] [µg/mL] | IC90 [5] [µg/mL] | IC90 (M. Smegmatis (ATCC607)) [µg/mL] | IC90 [1] [µg/mL] | IC90 [2] [µg/mL] | IC90 values PAE 27853 [6] [µg/mL] | IC90 values MTB 1 H37RV [7] [µg/mL]
1 | COc1nc2ccc(N3CCOCC3)cc2cc1C(c1ccccc1)C(O)(CCN(C)C)c1ccccc1 (single isomer, unassigned) [Compound 36] | 190 | 8.1 (≈ 15.8 µM) | 51.2 (≈ 100 µM) | 51.2 (≈ 100 µM) | 40.6 (≈ 79.3 µM) | 51.2 (≈ 100 µM) | 51.2 (≈ 100 µM) |  |  |  |  |  |  |  |  |  | 
2 | COc1nc2ccc(/C=N/O)cc2cc1C(c1ccccc1)C(O)(CCN(C)C)c1cccc2ccccc12 (single isomer, unassigned) [Compound 23] | 187 | 0.3 (≈ 0.577 µM) | 6.5 (≈ 12.5 µM) | 0.3 (≈ 0.577 µM) |  |  |  | 8.24 (≈ 15.9 µM) | 7.3 (≈ 14 µM) | 8.24 (≈ 15.9 µM) | 18.4 (≈ 35.5 µM) | 52 (≈ 100 µM) |  |  |  |  | 
3 | COc1nc2ccc(C(=O)N3CCN(C)CC3)cc2cc1C(c1ccccc1)C(O)(CCN(C)C)c1cccc2ccccc12 (single isomer, unassigned) [Compound 31] | 195 |  |  |  |  |  |  |  | 4.8 (≈ 7.96 µM) |  |  |  | 0.4 (≈ 0.664 µM) | 38 (≈ 63 µM) | 10.7 (≈ 17.8 µM) |  | 
4 | COc1nc2ccc(CN)cc2cc1C(c1ccccc1)C(O)(CCN(C)C)c1cccc2ccccc12 (stereo not drawn) [Compound 18] |  | 0.4 (≈ 0.791 µM) | 8.0 (≈ 15.8 µM) | 3.6 (≈ 7.12 µM) | 6.37 (≈ 12.6 µM) | 17.94 (≈ 35.5 µM) | 8.01 (≈ 15.8 µM) |  |  |  |  |  |  |  |  | 8.01 (≈ 15.8 µM) | 1.6 (≈ 3.16 µM)
5 | COc1nc2ccc(CNC(C)=O)cc2cc1C(c1ccccc1)C(O)(CCN(C)C)c1cccc2ccccc12 (single isomer, unassigned) [Compound 27] | 203 |  |  |  |  |  |  |  | 21.8 (≈ 39.8 µM) |  |  |  | 4.4 (≈ 8.03 µM) | 34.6 (≈ 63.2 µM) | 8.7 (≈ 15.9 µM) |  | 
6 | C=Cc1ccc2nc(OC)c(C(c3ccccc3)C(O)(CCN(C)C)c3cccc4ccccc34)cc2c1 (single isomer, unassigned) [Compound 8] |  |  | 50.3 (≈ 100 µM) | 2.0 (≈ 3.98 µM) |  |  |  | 44.8 (≈ 89.1 µM) | 3.6 (≈ 7.16 µM) | 50.3 (≈ 100 µM) | 50.3 (≈ 100 µM) | 50.3 (≈ 100 µM) |  |  |  |  | 
7 | COc1nc2ccc(N)cc2cc1C(c1ccccc1)C(O)(CCN(C)C)c1cccc2ccccc12 (single isomer, unassigned) [Compound 15] | 205 | 0.3 (≈ 0.61 µM) | 7.8 (≈ 15.9 µM) | 7.8 (≈ 15.9 µM) |  |  |  |  |  |  |  |  |  |  |  |  | 1.6 (≈ 3.25 µM)
8 | COc1nc2ccc(CN)cc2cc1C(c1ccccc1)C(O)(CCN(C)C)c1cccc2ccccc12 (stereo not drawn) [Compound 19] |  | 1.6 (≈ 3.16 µM) |  |  |  | 40.17 (≈ 79.4 µM) | 40.17 (≈ 79.4 µM) | 8.01 (≈ 15.8 µM) |  | 8.01 (≈ 15.8 µM) |  |  |  | 8 (≈ 15.8 µM) | 1.8 (≈ 3.56 µM) |  | 8.0 (≈ 15.8 µM)
9 | C=Cc1ccc2nc(OC)c(C(c3ccccc3)C(O)(CCN(C)C)c3cccc4ccccc34)cc2c1 (stereo not drawn) [Compound 9] |  |  |  |  |  |  |  | 50.3 (≈ 100 µM) | 0.2 (≈ 0.398 µM) | 50.3 (≈ 100 µM) | 50.3 (≈ 100 µM) | 50.3 (≈ 100 µM) | 0.003 (≈ 0.00597 µM) | 50.3 (≈ 100 µM) | 0.3 (≈ 0.597 µM) |  | 
10 | CO/N=C/c1ccc2nc(OC)c(C(c3ccccc3)C(O)(CCN(C)C)c3cccc4ccccc34)cc2c1 (single isomer, unassigned) [Compound 26] | 170 | 0.3 (≈ 0.562 µM) | 53.4 (≈ 100 µM) | 18.9 (≈ 35.4 µM) | 53.37 (≈ 100 µM) | 53.37 (≈ 100 µM) | 53.37 (≈ 100 µM) |  |  |  |  |  |  |  |  | 53.37 (≈ 100 µM) | 8.5 (≈ 15.9 µM)
11 | C/C=C/c1ccc2nc(OC)c(C(c3ccccc3)C(O)(CCN(C)C)c3cccc4ccccc34)cc2c1 (single isomer, unassigned) [Compound 11] | 190 | 0.01 (≈ 0.0194 µM) | 51.7 (≈ 100 µM) | 1.8 (≈ 3.48 µM) | 51.67 (≈ 100 µM) | 51.67 (≈ 100 µM) |  | 51.7 (≈ 100 µM) |  |  |  |  |  |  |  |  | 
12 | CO/N=C/c1ccc2nc(OC)c(C(c3ccccc3)C(O)(CCN(C)C)c3cccc4ccccc34)cc2c1 (single isomer, unassigned) [Compound 25] | 228 |  | 8.5 (≈ 15.9 µM) | 2.1 (≈ 3.94 µM) | 8.46 (≈ 15.9 µM) | 8.46 (≈ 15.9 µM) |  |  |  |  |  | 53.4 (≈ 100 µM) | 0.3 (≈ 0.562 µM) |  |  | 8.46 (≈ 15.9 µM) | 1.7 (≈ 3.19 µM)
13 | COc1nc2ccc(N3CCOCC3)cc2cc1C(c1ccccc1)C(O)(CCN(C)C)c1ccccc1 (single isomer, unassigned) [Compound 5] |  | 0.04 (≈ 0.0782 µM) |  | 9.1 (≈ 17.8 µM) |  |  |  |  |  | 40.6 (≈ 79.4 µM) | 40.6 (≈ 79.4 µM) | 51.2 (≈ 100 µM) |  | 40.6 (≈ 79.3 µM) |  |  | 
14 | COc1nc2ccc(N3CCOCC3)cc2cc1C(c1ccccc1)C(O)(CCN(C)C)c1cccc2ccccc12 (single isomer, unassigned) [Compound 30] | 210 |  |  |  |  |  |  | 22.4 (≈ 39.8 µM) | 8.9 (≈ 15.8 µM) | 44.6 (≈ 79.4 µM) | 44.6 (≈ 79.4 µM) | 56.2 (≈ 100 µM) | 0.1 (≈ 0.178 µM) | 44.6 (≈ 79.4 µM) | 14.1 (≈ 25.1 µM) |  | 

Reference: US8415475B2, “Antibacterial quinoline derivatives” (Janssen Pharmaceutica N.V., priority 2006, dated 2013)
